Reference: ChEMBL document CHEMBL1154467, “QSAR study about ATP-sensitive potassium channel activation of cromakalim analogues using CP-MLR approach” (Eur J Med Chem, 2008)

Target: ATP-binding cassette sub-family C member 9 (Rattus norvegicus) (UniProt Q63563)
Experiment: […] of SUR2A/kir6.2 channel in Wistar rat thoracic aorta assessed as relaxation of Kcl-induced contraction
Type: tissue-based

Sequence of ATP-binding cassette sub-family C member 9 (Rattus norvegicus) (Q63563 whole entry): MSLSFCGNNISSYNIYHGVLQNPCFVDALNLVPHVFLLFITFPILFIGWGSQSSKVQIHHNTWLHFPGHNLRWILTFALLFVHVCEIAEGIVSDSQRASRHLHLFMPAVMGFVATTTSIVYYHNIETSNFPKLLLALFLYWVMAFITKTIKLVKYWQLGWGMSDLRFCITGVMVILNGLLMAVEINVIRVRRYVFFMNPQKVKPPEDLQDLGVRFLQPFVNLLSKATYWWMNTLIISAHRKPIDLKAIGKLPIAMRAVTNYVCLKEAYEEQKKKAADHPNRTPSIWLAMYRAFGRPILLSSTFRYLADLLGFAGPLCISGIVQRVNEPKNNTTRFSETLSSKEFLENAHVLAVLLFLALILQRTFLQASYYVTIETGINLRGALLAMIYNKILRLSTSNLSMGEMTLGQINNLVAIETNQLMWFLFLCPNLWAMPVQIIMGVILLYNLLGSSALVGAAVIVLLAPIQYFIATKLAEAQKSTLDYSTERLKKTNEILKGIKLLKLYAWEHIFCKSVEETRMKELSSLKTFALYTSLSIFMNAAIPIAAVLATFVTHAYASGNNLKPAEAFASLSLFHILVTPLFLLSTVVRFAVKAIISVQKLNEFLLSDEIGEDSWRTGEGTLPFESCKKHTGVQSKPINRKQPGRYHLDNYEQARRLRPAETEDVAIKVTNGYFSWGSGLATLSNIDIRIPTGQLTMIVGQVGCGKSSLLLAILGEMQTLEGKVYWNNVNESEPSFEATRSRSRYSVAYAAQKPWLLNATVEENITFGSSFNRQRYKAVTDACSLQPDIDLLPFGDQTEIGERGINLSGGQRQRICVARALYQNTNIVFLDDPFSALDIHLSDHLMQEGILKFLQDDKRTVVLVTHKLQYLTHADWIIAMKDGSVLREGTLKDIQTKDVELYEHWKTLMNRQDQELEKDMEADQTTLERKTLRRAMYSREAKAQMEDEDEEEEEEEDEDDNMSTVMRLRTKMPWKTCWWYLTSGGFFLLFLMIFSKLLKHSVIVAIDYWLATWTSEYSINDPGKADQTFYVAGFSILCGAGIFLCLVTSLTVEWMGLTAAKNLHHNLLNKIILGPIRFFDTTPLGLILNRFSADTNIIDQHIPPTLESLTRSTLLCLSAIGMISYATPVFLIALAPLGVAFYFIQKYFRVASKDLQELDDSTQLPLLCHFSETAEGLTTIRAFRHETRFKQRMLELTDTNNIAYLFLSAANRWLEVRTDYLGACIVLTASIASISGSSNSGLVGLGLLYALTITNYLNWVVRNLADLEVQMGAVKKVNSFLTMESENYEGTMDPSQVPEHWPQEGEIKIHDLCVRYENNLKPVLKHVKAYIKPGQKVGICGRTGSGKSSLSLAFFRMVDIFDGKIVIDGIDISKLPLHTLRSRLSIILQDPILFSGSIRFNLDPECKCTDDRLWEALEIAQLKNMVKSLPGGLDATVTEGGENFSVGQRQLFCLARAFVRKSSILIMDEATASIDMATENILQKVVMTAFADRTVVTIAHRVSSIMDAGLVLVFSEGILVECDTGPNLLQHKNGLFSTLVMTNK

SMILES	pED50
CCNC(=O)NC1CC(C)(C)Oc2ccc(F)cc21 (configuration not stated)	4.37
CC(=O)NC1CC(C)(C)Oc2ccc(F)cc21 (configuration not stated)	4.33
CCOC(=O)NC1CC(C)(C)Oc2ccc(Cl)cc21 (configuration not stated)	4.42
CCOC(=O)NC1CC(C)(C)Oc2ccc(F)cc21 (configuration not stated)	4.14
CC1(C)CC(NC(=S)NCc2ccccc2)c2cc(F)ccc2O1 (configuration not stated)	5.37
CC1(C)CC(NC(=S)NCc2ccccc2)c2cc(Br)ccc2O1 (configuration not stated)	4.61
CC1(C)CC(NC(=O)NCc2ccccc2)c2cc(Br)ccc2O1 (configuration not stated)	< 3.52
CC1(C)CC(NC(=S)NCc2ccccc2)c2cc(Cl)ccc2O1 (configuration not stated)	4.7
CCNC(=S)NC1CC(C)(C)Oc2ccc(F)cc21 (configuration not stated)	4.75
CC1(C)CC(NC(=O)NS(=O)(=O)c2ccc(Cl)cc2)c2cc(Cl)ccc2O1 (configuration not stated)	4.29
CC(=O)NC1CC(C)(C)Oc2ccc(Cl)cc21 (configuration not stated)	5.18
Cc1ccc(S(=O)(=O)NC(=O)NC2CC(C)(C)Oc3ccc(Cl)cc32)cc1 (configuration not stated)	4.2
CCNC(=O)NC1CC(C)(C)Oc2ccc(Cl)cc21 (configuration not stated)	5.17
CC1(C)CC(NC(=O)NCc2ccccc2)c2cc(Cl)ccc2O1 (configuration not stated)	4.82
CC1(C)CC(NC(=O)NS(=O)(=O)c2ccccc2)c2cc(Cl)ccc2O1 (configuration not stated)	3.68
CCNC(=S)NC1CC(C)(C)Oc2ccc(Cl)cc21 (configuration not stated)	5.09
CC1(C)Oc2ccc(C#N)cc2C(N2CCCC2=O)C1O (racemic)	6.89

Other lines, results leading:

pED50	SMILES
4.96	CC(C)NC(=S)NC1CC(C)(C)Oc2ccc(Cl)cc21 (configuration not stated)
3.96	CC(C)NC(=O)NC1CC(C)(C)Oc2ccc(F)cc21 (configuration not stated)
5.19	CC(=O)NC1CC(C)(C)Oc2ccc(Br)cc21 (configuration not stated)
< 3.52	CC(C)NC(=O)NC1CC(C)(C)Oc2ccc(Br)cc21 (configuration not stated)
3.84	CC(C)NC(=O)NC1CC(C)(C)Oc2ccc(Cl)cc21 (configuration not stated)
4.73	CC(C)NC(=S)NC1CC(C)(C)Oc2ccc(F)cc21 (configuration not stated)
5.12	CCNC(=O)NC1CC(C)(C)Oc2ccc(Br)cc21 (configuration not stated)
4.59	CCOC(=O)NC1CC(C)(C)Oc2ccc(Br)cc21 (configuration not stated)
5.43	CCNC(=S)NC1CC(C)(C)Oc2ccc(Br)cc21 (configuration not stated)
5.06	CC(C)NC(=S)NC1CC(C)(C)Oc2ccc(Br)cc21 (configuration not stated)
